Results: article PMC9681730, “DeepPROTACs is a deep learning-based targeted degradation predictor for PROTACs” (Nature Communications, 2022)

What was measured:
[1] = target: T1, ERα-LBD (estrogen receptor, ER) (Homo sapiens, UniProt P03372); assay: ITC (reverse titration, purified ERα-LBD); type: binding
T1 construct: gene ESR1; ERα-LBD (aa 298–554)
T1 sequence (P03372 298-554): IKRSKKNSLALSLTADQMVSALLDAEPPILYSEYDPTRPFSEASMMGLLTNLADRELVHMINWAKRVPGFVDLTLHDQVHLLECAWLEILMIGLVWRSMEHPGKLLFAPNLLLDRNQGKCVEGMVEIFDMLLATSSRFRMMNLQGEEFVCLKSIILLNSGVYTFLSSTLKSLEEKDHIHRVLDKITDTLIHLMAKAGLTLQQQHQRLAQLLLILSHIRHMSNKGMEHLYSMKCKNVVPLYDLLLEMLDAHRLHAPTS

VHL = target: T2, VHL (Homo sapiens, UniProt P40337); assay: ITC (reverse titration, purified VCB complex); type: binding
T2 construct: VHL (aa 54-213) in His-tagged VCB complex with EloB (aa 1-104) and EloC (aa 1-112); with EloB and EloC (VCB complex)
T2 sequence (P40337 54-213): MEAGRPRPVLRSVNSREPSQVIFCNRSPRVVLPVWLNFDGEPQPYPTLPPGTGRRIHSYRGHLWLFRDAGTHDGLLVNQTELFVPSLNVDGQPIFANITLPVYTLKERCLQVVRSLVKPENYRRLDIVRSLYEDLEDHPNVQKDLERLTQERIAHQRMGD
T2 sequence (Q15370 1-104 partner): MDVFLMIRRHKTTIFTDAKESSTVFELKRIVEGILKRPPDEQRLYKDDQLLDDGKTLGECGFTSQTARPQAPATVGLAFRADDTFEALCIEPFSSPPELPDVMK
T2 sequence (Q15369 whole entry partner, the tested form may be a part): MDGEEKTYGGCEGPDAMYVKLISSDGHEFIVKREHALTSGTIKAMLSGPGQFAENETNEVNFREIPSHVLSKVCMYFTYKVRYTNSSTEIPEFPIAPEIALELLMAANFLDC

Cc1ncsc1-c1ccc(CNC(=O)[C@@H]2C[C@@H](O)CN2C(=O)[C@@H](NC(=O)CCCCCCCCCC(=O)NCCOc2ccc(C(=C(CCCl)c3ccccc3)c3ccc(O)cc3)cc2)C(C)(C)C)cc1 [PROTAC 8]
Kd [1]: 2.14 µM | Kd (VHL): 4.37 µM
